Test results reported in patent US10577363B2, “Substituted piperidine compounds” (EPIZYME, INC., priority 2014, dated 2020).

Experiments:
SMYD3 [1] = molecular target: T1, SMYD3 (Homo sapiens (Human), UniProt Q9H7B4); experiment: SMYD3 biochemical assay (SPA, 3H-SAM methylation of MEKK2 protein substrate); details: read-out: SMYD3 Biochem IC50*
Method in brief: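 Full-length native human SMYD3 (E. coli-expressed, tags removed) preincubated with compounds 30 min at room temperature, then reaction started with 3H-SAM and GST-tagged MEKK2 protein in 25 mM Tris-Cl pH 8.0, 1 mM TCEP, 0.005% BSG, 0.005% Tween 20. Quenched with unlabelled SAM (100 uM final); 3H-MEKK2 counted by SPA.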

SMYD3 [2] = molecular target: T1, SMYD3; experiment: SMYD3 cell assay (Trimethyl-MEKK2 In-Cell Western in 293T/17 cells); type: cell-based; details: read-out: SMYD3 Cell IC50*
Method in brief: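 In-Cell Western ratio of trimethyl-Lys260 MEKK2 to anti-flag signal; percent inhibition from DMSO and maximum-inhibition controls, IC50 by non-linear regression, triplicates.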

[3] = IC50 values are an average of n = 1 to n = 50

T1 sequence (Q9H7B4 whole entry): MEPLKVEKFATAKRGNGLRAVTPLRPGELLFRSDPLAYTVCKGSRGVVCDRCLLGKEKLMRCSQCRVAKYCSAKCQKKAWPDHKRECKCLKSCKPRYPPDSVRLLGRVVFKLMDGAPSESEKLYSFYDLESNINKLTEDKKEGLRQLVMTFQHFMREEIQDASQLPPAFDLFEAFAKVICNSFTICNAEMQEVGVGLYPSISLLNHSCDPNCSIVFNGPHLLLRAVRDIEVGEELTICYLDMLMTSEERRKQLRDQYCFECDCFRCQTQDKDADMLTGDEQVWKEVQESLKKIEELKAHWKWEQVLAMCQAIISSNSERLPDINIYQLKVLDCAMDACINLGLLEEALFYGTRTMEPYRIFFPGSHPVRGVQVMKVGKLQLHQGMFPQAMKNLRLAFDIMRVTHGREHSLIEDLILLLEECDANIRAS

Row | Compound | IC50 (SMYD3 [1]) [nM] | IC50 (SMYD3 [2]) [nM] | IC50 (SMYD3 [1]; [3]) [nM] | IC50 (SMYD3 [2]; [3]) [nM]
1 | O=C(N[C@H]1C[C@H]2CC[C@@H](C1)N2S(=O)(=O)C[C@H]1CCCN1)c1cc(C2CC2)on1 [compound 956, 5-cyclopropyl-N-((1R,3R,5S)-8-((((R)-pyrrolidin-2-yl)methyl)sulfonyl)-8-azabicyclo[3.2.1]octan-3-yl)isoxazole-3-carboxamide] | 59.6 | 733 | – | –
2 | C[C@H]1CN(S(=O)(=O)[C@H]2CC[C@@H](N(C)C)CC2)CC[C@H]1NC(=O)c1cc(C2CC2)on1 [compound 957, 5-cyclopropyl-N-((3S,4R)-1-(((1s,4R)-4-(dimethylamino)cyclohexyl)sulfonyl)-3-methylpiperidin-4-yl)isoxazole-3-carboxamide] | 69 | 512 | – | –
3 | O=C(N[C@H]1C[C@H]2CC[C@@H](C1)N2S(=O)(=O)N1CCC(Nc2ncccn2)CC1)c1cc(C2CC2)on1 [compound 958, 5-cyclopropyl-N-((1R,3r,5S)-8-((4-(pyrimidin-2-ylamino)piperidin-1-yl)sulfonyl)-8-azabicyclo[3.2.1]octan-3-yl)isoxazole-3-carboxamide] | 76.7 | 486 | – | –
4 | NCCc1ccc(S(=O)(=O)N2[C@@H]3CC[C@H]2C[C@@H](NC(=O)c2cc(C4CC4)on2)C3)cc1 [compound 959, N-((1R,3r,5S)-8-((4-(2-aminoethyl)phenyl)sulfonyl)-8-azabicyclo[3.2.1]octan-3-yl)-5-cyclopropylisoxazole-3-carboxamide] | 79.7 | ≥ 10000 | – | –
5 | C[C@H]1C[C@@H](NC(=O)c2cc(C3CC3)on2)CCN1S(=O)(=O)N1CCNC[C@H]1c1ccccc1 [compound 960, 5-cyclopropyl-N-((2S,4S)-2-methyl-1-(((R)-2-phenylpiperazin-1-yl)sulfonyl)piperidin-4-yl)isoxazole-3-carboxamide] | 80.6 | 1350 | – | –
6 | CN(CCC(F)(F)F)C1CCN(S(=O)(=O)N2[C@@H]3CC[C@H]2C[C@@H](NC(=O)c2cc(C4CC4)on2)C3)CC1 [compound 961, 5-cyclopropyl-N-((1R,3r,5S)-8-((4-(methyl(3,3,3-trifluoropropyl)amino)piperidin-1-yl)sulfonyl)-8-azabicyclo[3.2.1]octan-3-yl)isoxazole-3-carboxamide] | 81.6 | 364 | – | –
7 | CNC(C)(C)c1ccc(S(=O)(=O)N2[C@@H]3CC[C@H]2C[C@@H](NC(=O)c2cc(C4CC4)on2)C3)cc1 [compound 962, 5-cyclopropyl-N-((1R,3r,5S)-8-((4-(2-(methylamino)propan-2-yl)phenyl)sulfonyl)-8-azabicyclo[3.2.1]octan-3-yl)isoxazole-3-carboxamide] | 81.8 | 695 | – | –
8 | CCC1CN(C)CCN1S(=O)(=O)N1[C@@H]2CC[C@H]1C[C@@H](NC(=O)c1cc(C3CC3)on1)C2 (stereo partly drawn) [compound 963, 5-cyclopropyl-N-((1R,3r,5S)-8-((2-ethyl-4-methylpiperazin-1-yl)sulfonyl)-8-azabicyclo[3.2.1]octan-3-yl)isoxazole-3-carboxamide] | 82.9 | 690 | – | –
9 | CN1CCCC[C@@H]1CS(=O)(=O)N1[C@@H]2CC[C@H]1C[C@@H](NC(=O)c1cc(C3CC3)on1)C2 [compound 964, 5-cyclopropyl-N-((1R,3R,5S)-8-((((R)-1-methylpiperidin-2-yl)methyl)sulfonyl)-8-azabicyclo[3.2.1]octan-3-yl)isoxazole-3-carboxamide] | 83 | 450 | – | –
10 | CCCc1cc(C(=O)N[C@H]2C[C@H]3CC[C@@H](C2)N3S(=O)(=O)CC2CCN(C)CC2)no1 [compound 965, N-((1R,3r,5S)-8-(((1-methylpiperidin-4-yl)methyl)sulfonyl)-8-azabicyclo[3.2.1]octan-3-yl)-5-propylisoxazole-3-carboxamide] | 85.3 | 1310 | – | –
11 | O=C(N[C@H]1CCN(S(=O)(=O)N2CCNCC2)[C@@H](Cc2ccccc2)C1)c1cc(C2CC2)on1 [compound 966, N-((2S,4S)-2-benzyl-1-(piperazin-1-ylsulfonyl)piperidin-4-yl)-5-cyclopropylisoxazole-3-carboxamide] | 86.8 | 1200 | – | –
12 | O=C(N[C@H]1C[C@H]2CC[C@@H](C1)N2S(=O)(=O)N1CC2CCC(C1)N2CCN1CCOCC1)c1cc(C2CC2)on1 [compound 967, 5-cyclopropyl-N-((1R,3r,5S)-8-((8-(2-morpholinoethyl)-3,8-diazabicyclo[3.2.1]octan-3-yl)sulfonyl)-8-azabicyclo[3.2.1]octan-3-yl)isoxazole-3-carboxamide] | – | – | 87 | 503
13 | NCc1ccc(S(=O)(=O)N2[C@@H]3CC[C@H]2C[C@@H](NC(=O)c2cc(C4CC4)on2)C3)c(Cl)c1 [compound 968, N-((1R,3r,5S)-8-((4-(aminomethyl)-2-chlorophenyl)sulfony1)-8-azabicyclo[3.2.1]octan-3-yl)-5-cyclopropylisoxazole-3-carboxamide] | – | – | 88.3 | ≥ 10000
14 | CN1CCC[C@@H]1CS(=O)(=O)N1[C@@H]2CC[C@H]1C[C@@H](NC(=O)c1cc(C3CC3)on1)C2 [compound 969, 5-cyclopropyl-N-((1R,3R,5S)-8-((((R)-1-methylpyrrolidin-2-yl)methyl)sulfonyl)-8-azabicyclo[3.2.1]octan-3-yl)isoxazole-3-carboxamide] | – | – | 88.6 | 440
15 | CCc1cc(C(=O)N[C@H]2C[C@H]3CC[C@@H](C2)N3S(=O)(=O)c2ccc(C(C)(C)N)cc2)no1 [compound 970, N-((1R,3r,5S)-8-((4-(2-aminopropan-2-yl)phenyl)sulfonyl)-8-azabicyclo[3.2.1]octan-3-yl)-5-ethylisoxazole-3-carboxamide] | – | – | 89.3 | 748
16 | O=C(N[C@H]1C[C@H]2CC[C@@H](C1)N2S(=O)(=O)C[C@H]1CCCCN1)c1cc(C2CC2)on1 [compound 971, 5-cyclopropyl-N-((1R,3R,5S)-8-((((R)-piperidin-2-yl)methyl)sulfonyl)-8-azabicyclo[3.2.1]octan-3-yl)isoxazole-3-carboxamide] | – | – | 90.8 | 466
17 | C[C@H]1C[C@@H](NC(=O)c2cc(C3CC3)on2)CCN1S(=O)(=O)N1CCC(NC(C)(C)c2ccccc2)CC1 [compound 972, 5-cyclopropyl-N-((2S,4S)-2-methyl-1-((4-((2-phenylpropan-2-yl)amino)piperidin-1-yl)sulfonyl)piperidin-4-yl)isoxazole-3-carboxamide] | – | – | 93.3 | 1270
18 | CN(CCN1CCOCC1)C1CCN(S(=O)(=O)N2[C@@H]3CC[C@H]2C[C@@H](NC(=O)c2cc(C4CC4)on2)C3)CC1 [compound 973, 5-cyclopropyl-N-((1R,3r,5S)-8-((4-(methyl(2-morpholinoethyl)amino)piperidin-1-yl)sulfonyl)-8-azabicyclo[3.2.1]octan-3-yl)isoxazole-3-carboxamide] | – | – | 95.3 | 1020
19 | CC[C@@H]1CN(S(=O)(=O)N2CC[C@H](NC(=O)c3cc(C4CC4)on3)C[C@@H]2C)CCN1 [compound 974, 5-cyclopropyl-N-((2S,4S)-1-(((R)-3-ethylpiperazin-1-yl)sulfonyl)-2-methylpiperidin-4-yl)isoxazole-3-carboxamide] | – | – | 99 | 807
20 | CC(C)C1CNCCN1S(=O)(=O)N1CC[C@H](NC(=O)c2cc(C3CC3)on2)C[C@@H]1C (stereo partly drawn) [compound 975, 5-cyclopropyl-N-((2S,4S)-1-((2-isopropylpiperazin-1-yl)sulfonyl)-2-methylpiperidin-4-yl)isoxazole-3-carboxamide] | – | – | 101 | 914
21 | CN1CCCC[C@H]1CS(=O)(=O)N1[C@@H]2CC[C@H]1C[C@@H](NC(=O)c1cc(C3CC3)on1)C2 [compound 976, 5-cyclopropyl-N-((1R,3S,5S)-8-((((S)-1-methylpiperidin-2-yl)methyl)sulfonyl)-8-azabicyclo[3.2.1]octan-3-yl)isoxazole-3-carboxamide] | – | – | 105 | 555
22 | CN1CC2CCC(C1)N2S(=O)(=O)N1[C@@H]2CC[C@H]1C[C@@H](NC(=O)c1cc(C3CC3)on1)C2 [compound 977, 5-cyclopropyl-N-((1R,3r,5S)-8-((3-methyl-3,8-diazabicyclo[3.2.1]octan-8-yl)sulfonyl)-8-azabicyclo[3.2.1]octan-3-yl)isoxazole-3-carboxamide] | – | – | 107 | 742
23 | CC(C)(NC1CCN(S(=O)(=O)N2[C@@H]3CC[C@H]2C[C@@H](NC(=O)c2cc(C4CC4)on2)C3)CC1)c1ccccc1 [compound 978, 5-cyclopropyl-N-((1R,3r,5S)-8-((4-((2-phenylpropan-2-yl)amino)piperidin-1-yl)sulfonyl)-8-azabicyclo[3.2.1]octan-3-yl)isoxazole-3-carboxamide] | – | – | 117 | 1330
24 | CN1CCC[C@H]1CS(=O)(=O)N1[C@@H]2CC[C@H]1C[C@@H](NC(=O)c1cc(C3CC3)on1)C2 [compound 979, 5-cyclopropyl-N-((1R,3S,5S)-8-((((S)-1-methylpyrrolidin-2-yl)methyl)sulfonyl)-8-azabicyclo[3.2.1]octan-3-yl)isoxazole-3-carboxamide] | – | – | 119 | 436
25 | C[C@H]1C[C@@H](NC(=O)c2cc(C3CC3)on2)CCN1S(=O)(=O)N1CCN(C)C[C@@H]1C [compound 980, 5-cyclopropyl-N-((2S,4S)-1-(((S)-2,4-dimethylpiperazin-1-yl)sulfonyl)-2-methylpiperidin-4-yl)isoxazole-3-carboxamide] | – | – | 120 | 697
